Like-named read-outs stand apart in the source and are kept apart here. Positions of bridges follow the written chain, without caps; N, C: chain ends. Residues, ends and D or L forms follow the SMILES beside them.
Columns and labels:
[1] = target: T1, hVEGF-A (Homo sapiens, UniProt P15692); experiment: KDR-CHO VEGF assay to determine cellular IC50 (VEGF mediated Tyr phosphorylation of KDR); type: cell-based
T1 sequence (P15692 207-395): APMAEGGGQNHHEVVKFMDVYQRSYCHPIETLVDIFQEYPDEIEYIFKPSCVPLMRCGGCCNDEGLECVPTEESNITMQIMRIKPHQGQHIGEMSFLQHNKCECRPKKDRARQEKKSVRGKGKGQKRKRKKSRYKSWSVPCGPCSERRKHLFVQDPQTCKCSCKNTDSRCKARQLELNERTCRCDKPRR

[2] = target: T2, VEGF-A and KDR (Homo sapiens, UniProt P15692); experiment: Competition ELISA, KDR-VEGF interaction; type: binding
T2 sequence (P15692 207-395): T1 sequence (P15692 207-395)
Protocol: Binding specificity of each peptide was established by competition ELISA. […] After blocking with block buffer (PBS with 0.5% BSA and 0.05% TWEEN®20) for 2 hours at room temperature, the receptor-Fc fusions or biotinylated receptors were serially diluted using assay buffer (PBS with 0.5% BSA and 0.05% TWEEN®20) and incubated for 1 hour at room temperature. […] Competition ELISA was conducted in an identical fashion as described above except after blocking, a mixture of serially diluted peptide containing a constant concentration of receptor-Fc fusion or biotinylated receptor (concentration of receptor was set to EC60) was added and incubated for 1 hour. All recombinant human proteins and antibodies were purchased from R &D Systems (Minneapolis, Minn.).

[3] = target: T3, hVEGF(8-109) (Homo sapiens, UniProt P15692); experiment: Spot phage ELISA; type: binding
T3 construct: hVEGF(8-109) or BSA were coated on 384-well MAXISORP™ immunoplates
T3 sequence (P15692 214-315): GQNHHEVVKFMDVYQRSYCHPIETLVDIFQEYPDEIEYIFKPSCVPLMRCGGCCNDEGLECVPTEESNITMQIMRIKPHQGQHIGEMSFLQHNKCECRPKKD
How it was run: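 After four selection rounds, phage supernatants from single clones (1:3 in PBT) were added to wells coated with hVEGF(8-109) or BSA; binding detected with anti-M13-HRP and TMB. Positive clones had target signal more than 3 times BSA background.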

[4] = IC50 against VEGF-A in in vitro and cellular assays, Table 25, improved potency compared to parent VEGF-CKP9
[5] = VEGF_CKP9 Loop1/Loop5 affinity-matured variants, Table 24

`CC[C@H](C)[C@@H]1NC(=O)[C@H](CC(N)=O)NC(=O)[C@@H](NC(=O)CN)CSSC[C@@H](C(=O)N[C@H](C(=O)N[C@H]2CSSC[C@@H](C(=O)NCC(=O)O)NC(=O)[C@H](CO)NC(=O)[C@H](CCC(N)=O)NC(=O)[C@H](Cc3ccc(O)cc3)NC(=O)[C@H](Cc3ccc(O)cc3)NC(=O)[C@H](CCC(N)=O)NC2=O)C(C)C)NC(=O)CNC(=O)[C@H](C)NC(=O)[C@H](CC(C)C)NC(=O)[C@@H]2CSSC[C@H](NC(=O)CNC(=O)[C@H](Cc3c[nH]c4ccccc34)NC(=O)[C@H](Cc3ccccc3)NC(=O)[C@@H]3CCCN3C(=O)[C@H](CC(C)C)NC(=O)[C@H](CCSC)NC1=O)C(=O)NCC(=O)N[C@@H](CCCNC(=N)N)C(=O)N[C@@H](CC(=O)O)C(=O)N[C@@H](Cc1ccccc1)C(=O)N[C@@H](CCC(=O)O)C(=O)N2` [VEGF_CKP9.54.90] (H-GCNIMLPFWGCGRDFECLAGCVCQYYQSCG-OH; disulfide 2-21, 11-17, 23-29; N-terminus and C-terminus assumed) was tested, and the IC50 ([1]; Cellular IC50 (nM), Table 36, loop 3/loop 4 variants) was 1.35 nM, the IC50 ([1]; Cellular IC50, Table 28) was 1.35 nM and the “FOLD IMPROVEMENT RELATIVE TO VARIANT 9.54.90” value ([1]; Table 36, from cellular IC50) was 1. For the same molecule, the IC50 ([1]; Table 38, F8Y and/or unnatural amino acid variants, read-out: Cellular IC50) was 1.35 nM, the “FOLD IMPROVEMENT RELATIVE TO VARIANT 9.54.90” value ([1]; Table 38, from cellular IC50) was 1 and the IC50 [2] was 0.2 nM. The “disruption of the interaction between VEGF-A and KDR” value ([2]; FIGS. 2A and 2B) was “disrupts”, the “S/N (signal to noise ratio as compared to BSA control)” value ([3]; Table 26) was 29.5 and the ELISA ([3]; loop 2 variants based on 9.54 framework, Table 26) was 2.3.

With `CC[C@H](C)[C@@H]1NC(=O)[C@H](CC(N)=O)NC(=O)[C@@H](NC(=O)CN)CSSC[C@@H](C(=O)N[C@H](C(=O)N[C@H]2CSSC[C@@H](C(=O)NCC(=O)O)NC(=O)[C@H](CO)NC(=O)[C@H](CCC(N)=O)NC(=O)[C@H](Cc3ccc(O)cc3)NC(=O)[C@H](Cc3ccc(O)cc3)NC(=O)[C@H](CCC(N)=O)NC2=O)C(C)C)NC(=O)CNC(=O)[C@H](C)NC(=O)[C@H](CC(C)C)NC(=O)[C@@H]2CSSC[C@H](NC(=O)CNC(=O)[C@H](Cc3c[nH]c4ccccc34)NC(=O)[C@H](Cc3ccccc3)NC(=O)[C@@H]3CCCN3C(=O)[C@H](CC(C)C)NC(=O)[C@H](CCSC)NC1=O)C(=O)N[C@@H](CCCCN)C(=O)N[C@@H](CCC(N)=O)C(=O)N[C@@H](CC(=O)O)C(=O)N[C@@H](CO)C(=O)N[C@@H](CC(=O)O)C(=O)N2` [VEGF_CKP9.54] (H-GCNIMLPFWGCKQDSDCLAGCVCQYYQSCG-OH; disulfide 2-21, 11-17, 23-29 (inferred); N-terminus and C-terminus assumed) the IC50 ([1]; Cellular IC50, Table 25) was 188 nM, the IC50 ([1]; Cellular IC50, Table 28) was 188 nM and the IC50 [1, 4] was 100 to 200 nM. The IC50 [2] was 5.8 nM, the “S/N (signal to noise ratio as compared to BSA control)” value ([3]; Table 24) was 28.4 and the ELISA [3, 5] was 2.1.

With `CC[C@H](C)[C@@H]1NC(=O)[C@H](CC(=O)O)NC(=O)[C@@H]2CCCN2C(=O)CNC(=O)[C@@H]2CSSC[C@H](NC(=O)[C@H](CC(=O)O)NC1=O)C(=O)N[C@@H](CC(C)C)C(=O)N[C@@H](C)C(=O)NCC(=O)N[C@H](C(=O)N[C@H](C(=O)N[C@H]1CSSC[C@@H](C(=O)NCC(=O)O)NC(=O)[C@H](CO)NC(=O)[C@H](CC(N)=O)NC(=O)[C@H](Cc3ccc(O)cc3)NC(=O)[C@H](Cc3c[nH]c4ccccc34)NC(=O)[C@H](Cc3c[nH]cn3)NC1=O)C(C)C)CSSC[C@H](NC(=O)CN)C(=O)N[C@@H](CC(=O)O)C(=O)N[C@@H](C(C)C)C(=O)N[C@@H](CCSC)C(=O)N[C@@H](CCC(N)=O)C(=O)N1CCC[C@H]1C(=O)N[C@@H](Cc1ccc(O)cc1)C(=O)N[C@@H](Cc1c[nH]c3ccccc13)C(=O)NCC(=O)N2` [VEGF_CKP9.63.12] (H-GCDVMQPYWGCGPDIDCLAGCVCHWYNSCG-OH; disulfide 2-21, 11-17, 23-29 (inferred); N-terminus and C-terminus assumed) the “FOLD IMPROVEMENT RELATIVE TO VARIANT 9.54.90” value ([1]; Table 36, from cellular IC50) was 0.74, the “S/N (signal to noise ratio as compared to BSA control)” value ([3]; Table 27) was 39.9 and the ELISA ([3]; loop 2 variants based on VEGF_CKP9.63 framework, Table 27) was 2.6.

`CSCC[C@@H]1NC(=O)[C@H](C(C)C)NC(=O)[C@H](CC(=O)O)NC(=O)[C@@H](NC(=O)CN)CSSC[C@@H](C(=O)N[C@H](C(=O)N[C@H]2CSSC[C@@H](C(=O)NCC(=O)O)NC(=O)[C@H](CO)NC(=O)[C@H](CC(N)=O)NC(=O)[C@H](Cc3ccc(O)cc3)NC(=O)[C@H](Cc3c[nH]c4ccccc34)NC(=O)[C@H](Cc3c[nH]cn3)NC2=O)C(C)C)NC(=O)CNC(=O)[C@H](C)NC(=O)[C@H](CC(C)C)NC(=O)[C@@H]2CSSC[C@H](NC(=O)CNC(=O)[C@H](Cc3c[nH]c4ccccc34)NC(=O)[C@H](Cc3ccc(O)cc3)NC(=O)[C@@H]3CCCN3C(=O)[C@H](CCC(N)=O)NC1=O)C(=O)N[C@@H](CCCCN)C(=O)N[C@@H](CCC(N)=O)C(=O)N[C@@H](CC(=O)O)C(=O)N[C@@H](CO)C(=O)N[C@@H](CC(=O)O)C(=O)N2` [VEGF_CKP9.63] (H-GCDVMQPYWGCKQDSDCLAGCVCHWYNSCG-OH; disulfide 2-21, 11-17, 23-29 (inferred); N-terminus and C-terminus assumed) was tested, and the IC50 ([1]; Cellular IC50, Table 25) was 140 nM, the IC50 ([1]; Cellular IC50, Table 28) was 140 nM and the IC50 [1, 4] was 100 to 200 nM. The IC50 [2] was 10.8 nM, the “S/N (signal to noise ratio as compared to BSA control)” value ([3]; Table 24) was 29.7 and the ELISA [3, 5] was 2.0.

— patent US11155586B2, “Cystine knot scaffold platform” (Genentech, Inc., priority 2015, dated 2021)
